Patent US9884849B2, “Fluorinated benzofuranyl-pyrimidine derivatives containing a sulfoximine group” (Bayer Pharma Aktiengesellschaft, priority 2014, dated 2018)

Key:
[1] = biological target: T1, CDK9/CycT1 (Homo sapiens, UniProt P50750); assay: CDK9/CycT1 kinase assay (Method 1a, TR-FRET); assay type: biochemical; settings: 10 μM ATP; for Selectivity CDK9 over CDK2: IC50 (CDK2)/IC50 (CDK9): Methods 1a. and 2a.
T1 construct: Recombinant full-length His-tagged human CDK9 and CycT1; His; purchased Invitrogen PV4131; host or cells: insect cells
T1 sequence (P50750 whole entry): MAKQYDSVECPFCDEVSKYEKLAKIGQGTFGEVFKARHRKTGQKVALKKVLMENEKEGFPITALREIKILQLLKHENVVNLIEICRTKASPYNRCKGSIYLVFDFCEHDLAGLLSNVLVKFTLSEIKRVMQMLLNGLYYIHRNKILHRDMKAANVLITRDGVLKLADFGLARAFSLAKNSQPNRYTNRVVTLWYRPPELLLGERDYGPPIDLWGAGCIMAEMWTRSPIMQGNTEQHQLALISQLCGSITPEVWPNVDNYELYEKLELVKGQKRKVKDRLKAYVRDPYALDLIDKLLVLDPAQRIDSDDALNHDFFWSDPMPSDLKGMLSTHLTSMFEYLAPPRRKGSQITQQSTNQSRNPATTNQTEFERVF
T1 sequence (O60563 whole entry partner): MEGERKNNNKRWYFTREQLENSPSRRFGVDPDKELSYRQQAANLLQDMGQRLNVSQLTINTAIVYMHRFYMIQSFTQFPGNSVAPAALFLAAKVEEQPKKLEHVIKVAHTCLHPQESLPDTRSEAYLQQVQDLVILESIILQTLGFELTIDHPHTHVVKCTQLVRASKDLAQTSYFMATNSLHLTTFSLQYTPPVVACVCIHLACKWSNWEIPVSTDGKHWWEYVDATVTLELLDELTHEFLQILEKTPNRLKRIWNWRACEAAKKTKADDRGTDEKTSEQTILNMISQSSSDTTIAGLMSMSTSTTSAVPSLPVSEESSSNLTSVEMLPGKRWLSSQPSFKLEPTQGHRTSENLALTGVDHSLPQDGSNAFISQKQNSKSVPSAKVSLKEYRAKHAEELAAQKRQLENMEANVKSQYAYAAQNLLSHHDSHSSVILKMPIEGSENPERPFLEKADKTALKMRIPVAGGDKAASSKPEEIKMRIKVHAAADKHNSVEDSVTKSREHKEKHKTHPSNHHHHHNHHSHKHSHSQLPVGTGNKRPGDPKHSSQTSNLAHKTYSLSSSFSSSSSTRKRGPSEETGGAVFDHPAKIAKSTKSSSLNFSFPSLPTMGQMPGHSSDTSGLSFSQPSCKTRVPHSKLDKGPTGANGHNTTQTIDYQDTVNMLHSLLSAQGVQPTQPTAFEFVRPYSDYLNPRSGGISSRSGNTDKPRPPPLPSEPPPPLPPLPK
Text: 1a. CDK9/CycT1 Kinase Assay:
CDK9/CycT1-Inhibitory Activity of Compounds of the Present Invention was Quantified Employing the CDK9/CycT1 TR-FRET Assay as Described in the Following Paragraphs:
(§1) Recombinant full-length His-tagged human CDK9 and CycT1, expressed in insect cells and purified by Ni-NTA affinity chromatography, were purchased from Invitrogen (Cat. No PV4131). As substrate for the kinase reaction biotinylated peptide biotin-Ttds-YISPLKSPYKISEG (C-terminus in amid form) was used which can be purchased e.g. form the company JERINI Peptide Technologies (Berlin, Germany). For the assay 50 nl of a 100 fold concentrated solution of the test compound in DMSO was pipetted into a black low volume 384 well microtiter plate (Greiner Bio-One, Frickenhausen, Germany), 2 μl of a solution of CDK9/CycT1 in aqueous assay buffer [50 mM Tris/HCl pH 8.0, 10 mM MgCl2, 1.0 mM dithiothreitol, 0.1 mM sodium ortho-vanadate, 0.01% (v/v) Nonidet-P40 (Sigma)] were added and the mixture was incubated for 15 min at 22° C. to allow pre-binding of the test compounds to the enzyme before the start of the kinase reaction. Then the kinase reaction was started by the addition of 3 μl of a solution of adenosine-tri-phosphate (ATP, 16.7 μM=>final conc. in the 5 μl assay volume is 10 μM) and substrate (1.67 μM=>final conc. in the 5 μl assay volume is 1 μM) in assay buffer and the resulting mixture was incubated for a reaction time of 25 min at 22° C. The concentration of CDK9/CycT1 was adjusted depending of the activity of the enzyme lot and was chosen appropriate to have the assay in the linear range, typical concentrations were in the range of 1 μg/mL. The reaction was stopped by the addition of 5 μl of a solution of TR-FRET detection reagents (0.2 μM streptavidine-XL665 [Cisbio Bioassays, Codolet, France] and 1 nM anti-RB(pSer807/pSer811)-antibody from BD Pharmingen [#558389] and 1.2 nM LANCE EU-W1024 labeled anti-mouse IgG antibody [Perkin-Elmer, product no. AD0077]) in an aqueous EDTA-solution (100 mM EDTA, 0.2% (w/v) bovine serum albumin in 100 mM HEPES/NaOH pH 7.0).
(§2) The resulting mixture was incubated 1 h at 22° C. to allow the formation of complex between the phosphorylated biotinylated peptide and the detection reagents. Subsequently the amount of phosphorylated substrate was evaluated by measurement of the resonance energy transfer from the Eu-chelate to the streptavidine-XL. Therefore, the fluorescence emissions at 620 nm and 665 nm after excitation at 350 nm was measured in a HTRF reader, e.g. a Rubystar (BMG Labtechnologies, Offenburg, Germany) or a Viewlux (Perkin-Elmer). The ratio of the emissions at 665 nm and at […] was taken as the measure for the amount of phosphorylated substrate. The data were normalised (enzyme reaction without inhibitor=0% inhibition, all other assay components but no enzyme=100% inhibition).

[2] = biological target: T1, CDK9/CycT1; assay: CDK9/CycT1 high ATP kinase assay (Method 1b, TR-FRET); assay type: biochemical; settings: 2 mM ATP; for Selectivity high ATP CDK9 over high ATP CDK2: IC50 (high ATP CDK2)/IC50 (high ATP CDK9): Methods 1b. and 2b.
Experimental: 1b. CDK9/CycT1 High ATP Kinase Assay
CDK9/CycT1-Inhibitory Activity of Compounds of the Present Invention at a High ATP Concentration after Preincubation of Enzyme and Test Compounds was Quantified Employing the CDK9/CycT1 TR-FRET Assay as Described in the Following Paragraphs.
as §1, with “were purchase” for “were purchased”, “JERINI peptide technologies” for “JERINI Peptide Technologies”, “(ATP, 3.3 mM=>final” for “(ATP, 16.7 μM=>final”, “is 2 mM)” for “is 10 μM)”, “of 0.5” for “of 1”
as §2

| IC50 [1] [nM] | Selectivity CDK9 over CDK2: IC50 (CDK2)/IC50 (CDK9) [1] | IC50 [2] [nM] | Selectivity high ATP CDK9 over high ATP CDK2: IC50 (high ATP CDK2)/IC50 (high ATP CDK9) [2] | Structure (SMILES) |
| --- | --- | --- | --- | --- |
| 1.6 | 39 | 1 | 812 | CS(=O)(Cc1cc(F)cc(Nc2ncc(F)c(-c3ccc(F)c4ccoc34)n2)c1)=NC#N (single isomer, unassigned) [Example 8, [(3-Fluoro-5-{[5-fluoro-4-(4-fluoro-1-benzofuran-7-yl)pyrimidin-2-yl]amino}benzyl)(methyl)-oxido-λ^6-sulfanylidene]cyanamide] |
| 2.1 | 42 | 3.4 | 656 | CS(=O)(Cc1cc(F)cc(Nc2ncc(F)c(-c3ccc(F)c4ccoc34)n2)c1)=NC#N (single isomer, unassigned) [Example 9, [(3-Fluoro-5-{[5-fluoro-4-(4-fluoro-1-benzofuran-7-yl)pyrimidin-2-yl]amino}benzyl)(methyl)-oxido-λ^6-sulfanylidene]cyanamide] |
| 3.1 | 15 | 0.99 | 1263 | CS(=N)(=O)Cc1cc(F)cc(Nc2ncc(F)c(-c3ccc(F)c4ccoc34)n2)c1 (single isomer, unassigned) [Example 12, 5-Fluoro-4-(4-fluoro-1-benzofuran-7-yl)-N-{3-fluoro-5-[(S-methylsulfonimidoyl)-methyl]-phenyl}-pyrimidin-2-amine] |
| 4.4 | 15 | 2.2 | 385 | Cc1cc(CS(C)(=O)=NC#N)cc(Nc2ncc(F)c(-c3ccc(F)c4ccoc34)n2)c1 (single isomer, unassigned) [Example 14, [(3-{[5-Fluoro-4-(4-fluoro-1-benzofuran-7-yl)pyrimidin-2-yl]amino}-5-methylbenzyl)-(methyl)oxido-λ^6-sulfanylidene]cyanamide] |
| 2.4 | 40 | 1.6 | 522 | Cc1cc(CS(C)(=O)=NC#N)cc(Nc2ncc(F)c(-c3ccc(F)c4ccoc34)n2)c1 (single isomer, unassigned) [Example 15, [(3-{[5-Fluoro-4-(4-fluoro-1-benzofuran-7-yl)pyrimidin-2-yl]amino}-5-methylbenzyl)-(methyl)oxido-λ^6-sulfanylidene]cyanamide] |
